According to patent publication US20080308744A1 (Beth Israel Deaconess Medical Center, priority 2003, published 2008):

Legend:
[1] = Fluorescence spectrometry: relative fluorescent yield of 800 nm contrast agents; assay type: physicochemical
Procedure: The performance of these agents in rat and pig model systems of SLN mapping for the skin, gastrointestinal tract and lung were also quantitated.
All of the samples were diluted with PBS, pH7.8, or with 100% FBS according to absorbance at λmax using 1-cm path length quartz spectrometer cell, and excited at 770 nm. Fluorescence was measured by calculating the area under the curve of the intensity from 785 nm to 950 nm subtracting the fluorescence of control PBS, pH 7.8.

[2] = Quantum yield measurements; assay type: physicochemical; details: compared to QD
[3] = in DMSO; cited from earlier work
[4] = Behaviour of the free dye in blood (description); details: small molecule form

| relative per molecule fluorescent yield to QDs ([1]; in 100% fetal bovine serum) | relative per molecule fluorescent yield to QDs ([1]; in phosphate-buffered saline) | quantum yield ([2]; in FBS) | quantum yield ([2]; in PBS) | solubility in blood [4] | in vivo early half-life | SMILES | quantum yield (control) [3] [%] |
| --- | --- | --- | --- | --- | --- | --- | --- |
| 1.0 | 0.4 | rather higher | same as that of QD | – | – | CC1(C)C(/C=C/C2=C(Oc3ccc(S(=O)(=O)O)cc3)C(=C/C=C3/N(CCCCS(=O)(=O)O)c4ccc(S(=O)(=O)[O-])cc4C3(C)C)/CCC2)=[N+](CCCCCC(=O)O)c2ccc(S(=O)(=O)O)cc21 [800CW] | – |
| 0.4 | 0.1 | – | – | somewhat less soluble in blood | shorter half-life | CC1(C)C(/C=C/C=C/C=C/C=C2\N(CCCCS(=O)(=O)O)c3ccc4ccccc4c3C2(C)C)=[N+](CCCCS(=O)(=O)[O-])c2ccc3ccccc3c21 [ICG, indocyanine green] | 13 |
